This is an account of results in patent publication US20120245201A1, “Isopropylphenidate for Treatment of Attention-Deficit/Hyperactivity Disorder and Fatigue-Related Disorders and Conditions” (priority 2009, published 2012).

For data set [1], the target named is T1, human serotonin 5-HT transporter (SERT) (Homo sapiens, UniProt P31645).
T1 construct: host or cells: CHO cells, cell membrane homogenates
As to the kind of experiment: Serotonin transporter binding assay ([3H]imipramine, CEREP). Conditions: ligand [3H]imipramine, transfected CHO cells, HCl salts. The procedure:
(§1) Transporter Binding and Cellular Uptake. All described monoamine transporter binding studies as well as cellular uptake assays were performed in duplicate by CEREP (Celle l'Evescault, France) and are described below. Further details of all assays performed may be accessed at the CEREP web site (world-wide-web at cerep.com). Cellular-based assays were conducted to provide complementary in vitro functional measures to complement the standard transporter assays as well as to provide direct comparisons of the homologs IPH with MPH with regard to DA, NE, and 5-HT uptake in synaptosomal preparations. The concentration of MPH, EPH, and IPH utilized in these studies was 10 μM, which represents a generally accepted screening concentration when evaluating compounds in this manner.
Serotonin Transporter Binding Assay. […] Briefly, cell membrane homogenates were incubated for 90 min at 4° C. with 2 nM of [^3H]imipramine in the absence and presence of each of the assessed compounds. Nonspecific binding was determined in the presence of 10 μM of imipramine. […] The filters were then dried and measured for radioactivity via scintillation counter. The standard reference compound was the TCA imipramine, which was tested in each experiment at several concentrations to generate a competition curve from which its IC50 was calculated.

Data set [2] has as its system NE uptake, synaptosomes prepared from the rat hypothalamus. As to the kind of experiment: Norepinephrine uptake into synaptosomes. Type of data set: cell-based. The procedure: as §1, with “preparations.” for “preparations. The concentration of MPH, EPH, and IPH utilized in these studies was 10 μM, which represents a generally accepted screening concentration when evaluating compounds in this manner.”

The test system of data set [3] is human intestinal microsomes (HIM). As to the kind of experiment: Hydrolysis to ritalinic acid by human intestinal microsomes. The following applies: 1 mM substrate, 0.2 mg/ml HIM, 37° C., 60 min. The data set is classed as in vitro ADME. The protocol: FIG. 2—Hydrolysis of methylphenidate (MPH) and isopropylphenidate (IPH) by recombinant human CES1, HLM, HIM. After incubation with CES 1 transfected human cells, HLM, and HIM at 37° C. for 60 min, the metabolite RA produced via hydrolysis of MPH and IPH was determined by HPLC. Data are presented as mean±SEM of 3 to 6 independent experiments.
Determination of Relative Hydrolytic Rates of MPH and IPH. The assessment of relative rates of hydrolysis of the two ester compounds utilized both cell culture and human liver microsomes (HLM) and human intestinal microsomes (HIM). The human carboxylesterase 1 (hCES1) s9 fraction was prepared utilizing a novel method developed in the inventors' laboratory previously (Zhu et al., 2008). Hydrolysis of IPH and MPH by hCES1, HLM, and human intestinal microsomes was assessed by incubating the substrates with the respective enzymes and measuring the formation of the major metabolite RA formed via ester hydrolysis. Briefly, 50 μl of freshly prepared substrates (IPH and MPH) was mixed with 50 μl of enzymes in 1.5 ml Eppendorf tubes yielding a total volume of 100 μl. […] Concentrations of the primary hydrolytic product of the two compounds, RA were determined utilizing a validated HPLC method previously described.

Data set [4] concerns male rats of the Sprague-Dawley strain. As to the kind of experiment: Locomotor activity measurement in rats. Type of data set: in vivo, rat. The procedure:
FIGS. 4A-B—Locomotor activity of SD rats after i.p. injection of IPH (10 mg/kg) and saline. The time course of locomotor response over a 120 min period following i.p. administration of IPH (10 mg/kg) versus saline is shown in FIG. 4A. As expected, IPH produced robust effects on locomotor activity in rats compared to saline injections at every 10 min period recorded post-dosing with a mean of nearly 1200 counts recorded during the initial 10 min measurement. Shown in FIG. 4B are the cumulative locomotor activity counts over the entire 120 min study period.
Chemical compounds. dl-threo-methylphenidate (MPH) was purchased from Sigma-Aldrich (St. Louis, Mo.). dl-isopropylphenidate (IPH) was also synthesized in the inventors' laboratory using the following method. In brief, (±)-ritalinic acid (2 mmol) was dissolved in isopropyl alcohol saturated with HCl gas (75 ml) and refluxed for 24 h under nitrogen. […] All compounds studied were assessed as their HCl salts. […]
Locomotor Activity Measurement in Rats. Locomotor-inducing activity of IPH was measured according to methods previously described by Patrick and associates during their establishment the differential pharmacology of the enantiomers of MPH (Patrick et al., 1987) as well as hydroxylated metabolites of MPH (Patrick et al., 1981). […] In brief, following an initial 60 min habituation period to the activity chamber, racemic IPH (or saline) was administered intraperitonealy (i.p.) to each animal (n=5 per active drug group; n=3 per saline group) at a dose of 10 mg/kg to correspond with 10 mg of racemic MPH (delivering 5 mg of d-MPH) which was previously determined to produce maximal behavioral responses (Patrick et al., 1987). […] Locomotor activity was recorded within doughnut-shaped cages with six photocell sensors equally spaced around a 9 cm runway. Activity counts as assessed by light-beam interruptions were recorded for each animal in increments of 10 minutes over a 2 hr period. Differences in the cumulative motor activity accounts were assessed by the unpaired, two-tailed Student t-test. […]

The next data set has as its system dogs. Conditions: reserpine pre-treated dogs; cited from earlier work.
For data set [5] the following is noted: immediate-release tablet; cited from earlier work.

T1 sequence (P31645 whole entry): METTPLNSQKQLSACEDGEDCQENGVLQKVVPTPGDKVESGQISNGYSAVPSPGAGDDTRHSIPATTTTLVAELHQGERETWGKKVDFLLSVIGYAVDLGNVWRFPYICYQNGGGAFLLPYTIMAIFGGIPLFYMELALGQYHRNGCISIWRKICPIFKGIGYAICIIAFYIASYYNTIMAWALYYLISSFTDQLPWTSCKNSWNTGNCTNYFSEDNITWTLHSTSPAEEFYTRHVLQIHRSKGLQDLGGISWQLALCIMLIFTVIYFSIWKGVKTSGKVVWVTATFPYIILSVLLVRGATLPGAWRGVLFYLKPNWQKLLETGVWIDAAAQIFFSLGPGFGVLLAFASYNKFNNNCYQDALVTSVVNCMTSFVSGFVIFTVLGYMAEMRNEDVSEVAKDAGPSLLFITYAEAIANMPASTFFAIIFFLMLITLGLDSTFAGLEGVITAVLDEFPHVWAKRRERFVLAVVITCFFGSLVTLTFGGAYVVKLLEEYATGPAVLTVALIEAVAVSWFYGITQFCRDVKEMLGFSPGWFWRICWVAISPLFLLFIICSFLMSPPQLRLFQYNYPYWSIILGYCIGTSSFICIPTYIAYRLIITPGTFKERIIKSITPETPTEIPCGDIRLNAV

As to `CC(C)OC(=O)C(c1ccccc1)C1CCCCN1` (racemic) [IPH, dl-threo-α-phenyl-2-piperidineacetic acid isopropyl ester], in data set [1] (10 μM), the “% inhibition of control specific binding, SERT (h)” value is on record as 20%. Besides, the “% inhibition of control specific binding; [3H]NE incorporation into synaptosomes” value in data set [2] (10 μM) stood at 62%. Besides, in data set [3], the “catalytic activity of HIM on hydrolysis” value is reported as “extremely low”. Further, the “mean locomotor activity counts during the initial 10 min measurement” value in data set [4] (10 mg/kg i.p., SD rats) is about 1200 counts. Besides, the “cumulative locomotor activity counts over 120 min versus saline” value in data set [4] (10 mg/kg i.p., SD rats, p<0.01) is “significantly elevated”. In data set [4] (racemic IPH 10 mg/kg i.p., identical experimental conditions), the “locomotor responses compared with d-MPH 5 mg/kg of the earlier study (Patrick et al., 1987)” value was “more potent and sustained locomotor responses”. Besides, in the data set on dogs, the “potency versus MPH in antagonizing the physiological influences of reserpine” value is on record as “lower potency”.

With `COC(=O)C(c1ccccc1)C1CCCCN1` (racemic) [MPH, dl-threo-methylphenidate, reference compound], the inhibition at 10 µM in data set [1] (read-out: % inhibition of control specific binding, SERT (h)) worked out at 6%; in data set [2] (read-out: % inhibition of control specific binding, [3H]NE incorporation into synaptosomes), 117%. For the same molecule, in data set [3], the “catalytic activity of HIM on hydrolysis” value is given as “extremely low”. Further, the plasma half-life in data set [5] was 2 to 3 h.
